# Article PMC6522510 (Nature Communications, 2019)
# How the values were obtained:
# Parameters in all cases: species or system AML cell lines (8); Primary HTS, single concentration about 10 uM, Cell Titer Glo viability; log10 luminescence, per cent inhibition relative to cycloheximide control
# Details in all cases: 72 h, relative to cycloheximide control, log10 luminescence; inhibitor
# MOLM-13 = test system: MOLM-13
# M07e = test system: M07e
# ML-2 = test system: ML-2
# CMS = test system: CMS
# U937 = test system: U937
# MV4-11 = test system: MV4-11
# CHRF288-11 = test system: CHRF288-11
# CMK = test system: CMK
Compound,MOLM-13 %inh (MOLM-13) [%],M07e %inh (M07e) [%],ML-2 %inh (ML-2) [%],CMS %inh (CMS) [%],U937 %inh (U937) [%],MV4-11 %inh (MV4-11) [%],CHRF288-11 %inh (CHRF288-11) [%],CMK %inh (CMK) [%]
Cn1cc(C2=C(c3cccc([N+](=O)[O-])c3)C(=O)NC2=O)c2ccccc21 [SJ000581137-1],11.77,11.35,13.53,50.99,-0.4034,20.06,36.65,90.94
Cn1c(=O)c(Oc2ccc(F)cc2F)cc2cnc(NCC(C)(C)O)nc21 [SJ000581138-1],1.398,5.81,-0.3186,0.7178,1.09,3.026,7.837,2.21
CC(=O)N[C@@H](Cc1ccc(OP(=O)(O)O)cc1)C(=O)N[C@H]1CCC(=O)N2CCC[C@@H](C(=O)NCc3ccc(O)cc3)N2C1=O [SJ000581139-1],2.506,2.301,-0.8925,2.649,-0.05209,1.337,-2.024,0.1299
COc1ccccc1CN=C1NC(=O)/C(=C/c2ccc3ncccc3c2)S1 [SJ000581141-1],11.11,13.46,2.098,6.446,8.458,3.855,-2.393,34.72
COc1ccccc1C(=O)c1cnc(NC2CCN(S(C)(=O)=O)CC2)nc1N [SJ000581142-1],12.27,6.858,3.568,7.4,8.409,2.743,2.52,37.79
CN[C@H](C#Cc1c(F)ccc2c1/C(=C/c1[nH]ccc1OC)C(=O)N2)CO [SJ000581143-1],108.7,77.31,61.18,103.6,84.86,81.33,59.49,110.7
COc1cccc(C2=C(c3c(C)n(C)c4ccccc34)C(=O)NC2=O)c1 [SJ000581144-1],3.467,8.342,-0.7501,-0.561,1.12,0.7267,0.2394,1.238
CC(C)Nc1ncc2cc(Oc3ccc(F)cc3F)c(=O)n(C)c2n1 [SJ000581145-1],2.517,6.769,0.005285,3.456,2.438,3.959,-0.5311,7.64
COc1cccc(C2=C(c3cn(C)c4ccc(Cl)cc34)C(=O)NC2=O)c1 [SJ000581146-1],1.622,8.183,-1.297,4.874,1.209,2.685,-4.42,-1.255
O=C1NC(=NCCc2ccccn2)S/C1=C\c1ccc2ncccc2c1 [SJ000581148-1],58.53,10.8,2.217,10.48,2.939,45.12,5.232,25.57
COc1cccc(C2=C(c3cn(C)c4cc(F)ccc34)C(=O)NC2=O)c1 [SJ000581149-1],1.739,3.649,-0.5942,6.064,0.6707,0.4897,1.293,-0.7568
Nc1c(C(=O)c2cccc(C(O)(CO)CO)c2)cnn1-c1ccc(F)cc1 [SJ000581150-1],1.373,0.2609,-0.9818,0.8259,-0.03378,2.176,-1.927,-0.6841
CCn1c(=O)c(Oc2ccc(F)cc2F)cc2cnc(NC3CCOCC3)nc21 [SJ000581151-1],2.299,11.45,-1.057,-2.221,0.6844,2.556,-1.135,8.128
Cc1ccc(C)c(C2=C(c3cn(C)c4ccccc34)C(=O)NC2=O)c1 [SJ000581152-1],2.3,-1.997,0.7091,-1.704,4.715,2.862,30.38,4.497
O=C1NC(=NCc2ccccc2Br)S/C1=C\c1ccc2ncccc2c1 [SJ000581153-1],2.882,7.782,3.418,1.226,5.903,3.118,2.479,1.742
Cn1cc(C2=C(c3cn(C)c4cc(N)ccc34)C(=O)NC2=O)c2ccccc21 [SJ000581154-1],77.98,38.42,25.1,49.07,39.79,66.53,40.91,105.6
CCc1c(C)nc2sc3c(N)ncnc3c2c1C [SJ000581155-1],58.52,3.066,1.162,6.427,2.164,0.965,5.014,26.14
Nc1c(C(=O)c2cccc(-c3ccc[n+]([O-])c3)c2)cnn1-c1ccc(F)cc1F [SJ000581156-1],3.379,5.956,2.597,-0.9836,3.963,2.306,0.7431,6.727
CC(CO)Nc1cc(-c2[nH]c3cccnc3c2-c2ccc(F)cc2)ccn1 (stereo not drawn) [SJ000581157-1],1.967,3.935,3.05,7.57,3.658,5.71,7.035,13.38
COc1cc[nH]c1/C=C1\C(=O)Nc2ccc(F)c(C#C[C@@H](O)[C@@H](N)[C@@H](C)O)c21 [SJ000581159-1],95.78,87.08,60.99,97.96,83.42,92.6,61.95,112.6
Cn1cc(C2=C(c3ccc(N)cc3)C(=O)NC2=O)c2ccccc21 [SJ000581160-1],6.461,7.926,2.229,6.332,1.651,3.731,1.792,8.525
Cc1ccccc1C1=C(c2cn(C)c3ccccc23)C(=O)NC1=O [SJ000581162-1],0.3788,5.581,3.854,6.978,0.403,6.408,8.356,3.937
Cn1c(=O)c(-c2ccccc2Cl)cc2cnc(NC3CCOCC3)nc21 [SJ000581163-1],7.929,8.813,1.667,7.391,4.292,5.265,6.112,15.25
COc1cc(F)c(F)c(F)c1C(=O)c1cnc(NC2CCN(S(C)(=O)=O)CC2)nc1N [SJ000581164-1],83.36,35.86,21.95,23.31,40.5,22.69,47.57,59.95
